Data published in patent US12350273B2, “Treatment of SMA” (Hoffmann-La Roche Inc., priority 2017, dated 2025).

Tested on: human iPSCs
Assay: Cell cycle analysis of human iPSCs (flow cytometry)
Format: cell-based
Settings: for percentage of events in G1 phase, mean / percentage of events in G2 phase, mean / percentage of events in S phase, mean: 24 h
Description: For the analysis of the cell cycle, monkey stem cells were detached with Accutase (Stem Cell Technologies) and plated at 15000 cells/cm2 in 6 well plates coated with Matrigel (BD Biosciences) in MT medium supplemented with 10 ng/ml ActivinA, 15 ng/ml FGF2, and 10 μM Rock inhibitor. Cells were expanded for 1 day and then synchronized by starvation for 7 h in MT medium without supplements FGF2 and ActivinA. Before flow cytometry, cells were incubated for 24 h with fresh MT medium containing supplements FGF2 and ActivinA and test items at 80 nM, 400 nM, and 2000 nM or 30 nM rapamycin as positive control to arrest cells in G1 phase. Human stem cells were detached with Accutase (Stem Cell Technologies) and plated at 40000 cells/cm2 in 6 well plates coated with Matrigel (BD Biosciences) in mTeSR1 supplemented with 10 μM Rock Inhibitor Y-27632 (Sigma-Aldrich). Cells were expanded for 3 days with daily medium change. Since human iPSCs lose their properties during starvation by growth factor withdrawal, stem cells were synchronized with 200 ng/ml Nocodazole (Sigma-Aldrich) for 5 h and washed subsequently 2 times with mTesR1 Medium. Before flow cytometry, cells were incubated for 24 h with fresh TesR1 medium containing test items at 80 nM, 400 nM, and 2000 nM or 30 nM rapamycin as positive control to arrest cells in G1 phase.
For cell cycle analysis, human iPSCs were washed with PBS, detached with Accutase (Stem Cell Technologies) and collected by centrifugation. Cells were stained for 1 h at 37° C. with 600 ul of 7 AAD/Saponin/RNAse mix ([…] 7 AAD (#559925, BD), 50 μg/ml RNase, and 0.03% Saponin dissolved in FACS buffer (PBS, 5% FBS, 10 mM Hepes)). Cynomolgus monkey iPSCs were washed with PBS, detached with Accutase (Stem Cell Technologies) and collected by centrifugation. Cells were stained for 30 min at 37° C. in 300 ul standard MT medium (with FGF2 and ActivinA) containing 1 ul Vybrant Dye Cycle Violet Stain (#V35003, 1000× stock, Invitrogen) per ml medium. Additionally 2 ul 7 AAD (50 μg/ml 7 AAD) were added without permeabilization to label dead cells; cells were incubated for 10 min at 37° C. Flow cytometry analysis was performed using a Canto II cytometer (BD Biosciences) and data were analysed with the FlowJo software.

Cc1cn2nc(-c3cc(=O)n4cc(N5CCNC6(CC6)C5)ccc4n3)cc(C)c2n1 [RO7034067, 7-(4,7-diazaspiro[2.5]octan-7-yl)-2-(2,8-dimethylimidazo[1,2-b]pyridazin-6-yl)pyrido[1,2-a]pyrimidin-4-one]
percentage of events in G1 phase, mean (80 nM): 44.6%
percentage of events in G2 phase, mean (80 nM): 29.2%
percentage of events in S phase, mean (80 nM): 26.2%
percentage of events in G1 phase, mean (400 nM): 40.8%
percentage of events in G2 phase, mean (400 nM): 31.4%
percentage of events in S phase, mean (400 nM): 27.8%
percentage of events in G1 phase, mean (2000 nM): 37.6%
percentage of events in G2 phase, mean (2000 nM): 29.3%
percentage of events in S phase, mean (2000 nM): 33.1%
effect on cell cycle (concentration-dependent): cell cycle arrest in S phase
